Measured values as given in patent US5753648A, “Tricyclic benzazepine vasopressin antagonists” (American Cyanamid Company, priority 1996, dated 1998).
Like-named read-outs stand apart in the source and are kept apart here.

Columns and labels:
[1] = molecular target: T1, Rat Kidney Medullary V2 Receptors (Rattus norvegicus, UniProt Q00788); test: biochemical; assay type: binding
T1 construct: Medullary tissues from rat kidneys are dissected out; from tissue; host or cells: rat kidney medulla membranes
T1 sequence (Q00788 whole entry): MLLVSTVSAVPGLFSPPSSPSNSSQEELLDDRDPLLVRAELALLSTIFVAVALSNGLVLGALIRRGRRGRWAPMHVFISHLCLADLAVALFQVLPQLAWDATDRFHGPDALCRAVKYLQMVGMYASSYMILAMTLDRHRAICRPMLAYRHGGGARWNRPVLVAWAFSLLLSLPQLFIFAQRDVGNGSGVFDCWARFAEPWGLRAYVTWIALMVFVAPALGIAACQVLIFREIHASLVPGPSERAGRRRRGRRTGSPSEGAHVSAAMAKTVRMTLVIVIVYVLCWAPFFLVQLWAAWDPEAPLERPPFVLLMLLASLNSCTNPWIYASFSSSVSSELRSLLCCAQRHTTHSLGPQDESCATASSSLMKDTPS

[2] = molecular target: T2, Vasopressin V1 receptor subtype in Human Platelet Membranes (Homo sapiens, UniProt P37288); test: Binding to Vasopressin V1 receptor subtype in Human Platelet Membranes
T2 construct: Frozen platelet rich plasma (PRP), received from the Hudson Valley Blood Services, are thawed to room temperature; tissue Hudson Valley Blood Services; host or cells: human platelets (platelet rich plasma)
T2 sequence (P37288 whole entry): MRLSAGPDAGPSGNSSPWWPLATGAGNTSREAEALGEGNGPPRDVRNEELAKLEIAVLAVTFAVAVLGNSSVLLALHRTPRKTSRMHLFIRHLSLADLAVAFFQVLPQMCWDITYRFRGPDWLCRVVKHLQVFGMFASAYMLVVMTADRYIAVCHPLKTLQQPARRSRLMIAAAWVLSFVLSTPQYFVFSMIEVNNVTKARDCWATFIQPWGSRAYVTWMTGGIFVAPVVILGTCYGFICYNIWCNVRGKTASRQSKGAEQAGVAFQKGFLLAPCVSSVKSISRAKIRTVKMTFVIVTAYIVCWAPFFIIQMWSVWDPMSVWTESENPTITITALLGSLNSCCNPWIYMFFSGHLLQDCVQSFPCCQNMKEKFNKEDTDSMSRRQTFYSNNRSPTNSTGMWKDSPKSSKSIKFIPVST
Description: Radioligand Binding Experiments with Human Platelet Membranes
Platelet Source: Hudson Valley Blood Services,
Westchester Medical Center, Valhalla, N.Y.
Platelet Membrane Preparation
Frozen platelet rich plasma (PRP), received from the Hudson Valley Blood Services, are thawed to room temperature. The tubes containing the PRP are centrifuged at 16,000×g for 10 min. at 4° C. and the supernatant fluid discarded. The platelets resuspended in an equal volume of 50.0 mM Tris.HCl, pH 7.5 containing 120 mM NaCl and 20.0 mM EDTA. The suspension is recentrifuged at 16,000×g for 10 min. This washing step is repeated one more time. The wash discarded and the lysed pellets homogenized in low ionic strength buffer of Tris.HCl, 5.0 mM, pH 7.5 containing 5.0 mM EDTA. The homogenate is centrifuged at 39,000×g for 10 min. The resulting pellet is resuspended in Tris.HCl buffer, 70.0 mM, pH 7.5 and recentrifuged at 39,000×g for 10 min. The final pellet is resuspended in 50.0 mM Tris.HCl buffer pH 7.4 containing 120 mM NaCl and 5.0 mM KCl to give 1.0-2.0 mg protein per ml of suspension.
Binding to Vasopressin V1 receptor subtype in Human Platelet Membranes
In wells of 96 well format microtiter plate, add 100 μl of 50.0 mM Tris.HCl buffer containing 0.2% BSA and a mixture of protease inhibitors (aprotinin, leupeptin etc.). Then add 20 μl of [^3 H]Ligand (Manning or Arg^8 Vasopressin), to give final concentrations ranging from 0.01 to 10.0 nM. Initiate the binding by adding 80.0 μl of platelet suspension (approx. 100 μg protein). Mix all reagents by pipetting the mixture up and down a few times. Non specific binding is measured in the presence of 1.0 μM of unlabeled ligand (Manning or Arg^8 Vasopressin). Let the mixture stand undisturbed at room temperature for ninety (90) min. Upon this time, rapidly filter off the incubate under vacuum suction over GF/B filters, using a Brandel® Harvester. Determine the radioactivity caught on the filter disks by the addition of liquid scintillant and counting in a liquid scintillator.

[3] = molecular target: T3, oxytocin receptors (Rattus norvegicus, UniProt P70536); test: Oxytocin Receptor Binding; settings: for IC50: rat uterine membranes, [3H]oxytocin
T3 sequence (P70536 1-388): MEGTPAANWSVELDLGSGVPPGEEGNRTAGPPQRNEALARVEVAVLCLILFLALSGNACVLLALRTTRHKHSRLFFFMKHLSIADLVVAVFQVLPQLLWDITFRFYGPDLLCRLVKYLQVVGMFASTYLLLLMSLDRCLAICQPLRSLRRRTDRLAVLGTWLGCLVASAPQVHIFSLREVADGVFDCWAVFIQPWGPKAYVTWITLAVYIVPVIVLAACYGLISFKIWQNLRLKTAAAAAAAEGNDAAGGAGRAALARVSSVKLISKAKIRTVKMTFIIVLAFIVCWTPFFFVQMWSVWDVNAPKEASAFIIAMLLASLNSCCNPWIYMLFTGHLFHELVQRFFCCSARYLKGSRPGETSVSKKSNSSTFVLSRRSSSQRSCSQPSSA
Description: Female Sprague-Dawley rats weighing approximately 200-250 g are injected intramuscularly (i.m.) with 0.3 mg/kg of body weight of diethylstilbestrol (DES). The rats are sacrificed 18 hours later under pentobarbital anesthesia. The uteri are dissected out, cleaned of fat and connective tissues and rinsed in 50 ml of normal saline. The tissue pooled from six rats is homogenized in 50 ml of 0.01 mM Tris.HCl, containing 0.5 mM dithiothreitol and 1.0 mM EDTA, adjusted to pH 7.4, using a polytron at setting 6 with three passes of 10 sec each. The homogenate is passed through two (2) layers of cheesecloth and the filtrate centrifuged at 1000×g for 10 min. The clear supernatant is removed and recentrifuged at 165,000×g for 30 min. The resulting pellet containing the oxytocin receptors is resuspended in 50.0 mM Tris.HCl containing 5.0 mM MgCl2 at pH 7.4, to give a protein concentration of 2.5 mg/ml of tissue suspension. This preparation is used in subsequent binding assays with [^3 H]Oxytocin.
Binding of 3,5-[^3 H]Oxytocin ([^3 H]OT) to its receptors is done in microtiter plates using [^3 H]OT, at various concentrations, in an assay buffer of 50.0 mM Tris.HCl, pH 7.4 and containing 5.0 mM MgCl2, and a mixture of protease inhibitors: BSA, 0.1 mg; aprotinin, 1.0 mg; 1,10-phenanthroline, 2.0 mg; trypsin, 10.0 mg; and PMSF, 0.3 mg per 100 ml of buffer solution. Non-specific binding is determined in the presence of 1.0 uM unlabeled OT. The binding reaction is terminated after 60 min., at 220° C., by rapid filtration through glass fiber filters using a Brandel® cell harvester (Bio-medical Research and Development Laboratories, Inc., Gaithersburg, Md.). Competition experiments are conducted at equilibrium using 1.0 nM [^3 H]OT and varying the concentration of the displacing agents. The concentrations of agent displacing 50% of [^3 H]OT at its sites (IC50) are calculated by a computer assisted LUNDON-2 program (LUNDON SOFTWARE INC., Ohio, USA).

[4] = molecular target: T4, Human V2 Vasopressin Receptor (Homo sapiens, UniProt P30518); test: Binding to Membranes of Mouse Fibroblast Cell Line (LV-2) Transfected with the cDNA Expressing the Human V2 Vasopressin Receptor
T4 construct: expressed in transfected cells; host or cells: mouse fibroblast cell line LV-2
T4 sequence (P30518 whole entry): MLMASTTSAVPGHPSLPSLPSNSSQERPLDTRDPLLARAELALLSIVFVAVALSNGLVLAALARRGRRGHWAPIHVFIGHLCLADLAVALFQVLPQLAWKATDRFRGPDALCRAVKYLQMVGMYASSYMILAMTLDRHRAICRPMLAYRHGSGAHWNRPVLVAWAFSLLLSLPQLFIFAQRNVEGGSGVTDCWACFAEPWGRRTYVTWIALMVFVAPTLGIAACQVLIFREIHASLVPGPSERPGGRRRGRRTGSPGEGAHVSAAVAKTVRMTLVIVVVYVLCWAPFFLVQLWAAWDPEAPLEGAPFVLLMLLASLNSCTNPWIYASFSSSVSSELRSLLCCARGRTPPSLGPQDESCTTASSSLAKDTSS
Description: Binding to Membranes of Mouse Fibroblast Cell Line (LV-2) Transfected with the cDNA Expressing the Human V2 Vasopressin Receptor Membrane Preparation
Flasks of 175 ml capacity, containing attached cells grown to confluence, are cleared of culture medium by aspiration. The flasks containing the attached cells are rinsed with 2×5 ml of phosphate buffered saline (PBS) and the liquid aspirated off each time. Finally, 5 ml of an enzyme free dissociation Hank's based solution (Specialty Media, Inc., Lafayette, N.J.) is added and the flasks are left undisturbed for 2 min. The content of all flasks is poured into a centrifuge tube and the cells pelleted at 300×g for 15 min. The Hank's based solution is aspirated off and the cells homogenized with a polytron at setting #6 for 10 sec in 10.0 mM Tris.HCl buffer, pH 7.4 containing 0.25M sucrose and 1.0 mM EDTA. The homogenate is centrifuged at 1500×g for 10 min to remove ghost membranes. The supernatant fluid is centrifuged at 100,000×g for 60 min to pellet the receptor protein. Upon completion, the pellet is resuspended in a small volume of 50.0 mM Tris.HCl buffer, pH 7.4. The protein content is determined by the Lowry method and the receptor membranes are suspended in 50.0 mM Tris.HCl buffer containing 0.1 mM phenylmethylsulfonylfluoride (PMSF) and 0.2% bovine serum albumin (BSA) to give 2.5 mg receptor protein per ml of suspension.
For binding experiments, the following is added in μl volume to wells of a 96 well format of a microtiter plate: 100.0 μl of 100.0 mM Tris.HCl buffer containing 0.2% heat inactivated BSA, 10.0 mM MgCl2 and a mixture of protease inhibitors: leupeptin, 1.0 mg %; aprotinin, 1.0 mg %; 1,10-phenanthroline, 2.0 mg %; trypsin inhibitor, 10.0 mg % and 0.1 mM PMSF, 20.0 μl of [^3 H] Arginine^8, vasopressin (S.A. 75.0 Ci/mmole) at 0.8 nM and the reaction initiated by the addition of 80.0 μl of tissue membranes (200.0 μg tissue protein). The plates are left undisturbed on the bench top for 120 min to reach equilibrium. Non specific binding is assessed in the presence of 1.0 μm of unlabeled ligand, added in 20 μl volume. For test compounds, these are solubilized in 50% dimethylsulfoxide (DMSO) and added in 20.0 μl volume to a final incubation volume of 200 μl. Upon completion of binding, the content of each well is filtered off, using a Brandel® cell Harvester (Gaithersburg, Md.). The radioactivity trapped on the filter disk by the ligand-receptor complex is assessed by liquid scintillation counting in a Packard LS Counter, with an efficiency of 65% for tritium. The data are analyzed for IC50 values by the LUNDON-2 program for competition (LUNDON SOFTWARE, Ohio).

[5] = tested on: Endogenous Arginine Vasopressin Antidiuretic (V2) Response in Conscious Rats; test: Antagonism of Endogenous Arginine Vasopressin Antidiuretic (V2) Response in Conscious Rats (urine volume); assay type: in vivo, rat (Sprague-Dawley); settings: 10 mg/kg rat p.o.; 4 hour collection
Description: Effects on the Antagonism of Endogenous Arginine Vasopressin Antidiuretic (V2) Response in Conscious Rats with Free Access to Water Drinking Before but not During the Experiment:
Male or female normotensive Sprague-Dawley rats (Charles River Laboratories, Inc., Kingston, N.Y.) of 400-450 g body weight were supplied with Laboratory Rodent Feed #5001 (PMI Feeds, Inc., Richmond, Id.) and water ad libitum. On the day of test, rats were placed individually into metabolic cages equipped with stainless steel screens (to separate the feces from the urine) and funnels for collection of urine. Vehicle or reference agent was given at various oral doses. During the test, rats were not provided with water or food. Urine was collected for four hours after dosing of the test compound. At the end of four hours, urine volume was measured. Urinary osmolality was determined using a Fiske One-Ten Osmometer (Fiske Associates, Norwood, Mass. 02062) or an Advanced CRYOMATIC Osmometer, Model 3C2 (Advanced Instruments, Norwood, Mass.). Determinations of Na^+, K^+ and Cl^- ion were carried out using ion specific electrodes in a Beckman SYNCHRON EL-ISE Electrolyte System analyzer. In the following results, increased urine volume and decreased osmolality relative to AVP-control indicates activity.

[6] = molecular target: Rat Hepatic V1 Receptors (Rattus norvegicus, UniProt P30560); test: Binding Assay to Rat Hepatic V1 Receptors
Sequence of Rat Hepatic V1 Receptors (P30560 whole entry): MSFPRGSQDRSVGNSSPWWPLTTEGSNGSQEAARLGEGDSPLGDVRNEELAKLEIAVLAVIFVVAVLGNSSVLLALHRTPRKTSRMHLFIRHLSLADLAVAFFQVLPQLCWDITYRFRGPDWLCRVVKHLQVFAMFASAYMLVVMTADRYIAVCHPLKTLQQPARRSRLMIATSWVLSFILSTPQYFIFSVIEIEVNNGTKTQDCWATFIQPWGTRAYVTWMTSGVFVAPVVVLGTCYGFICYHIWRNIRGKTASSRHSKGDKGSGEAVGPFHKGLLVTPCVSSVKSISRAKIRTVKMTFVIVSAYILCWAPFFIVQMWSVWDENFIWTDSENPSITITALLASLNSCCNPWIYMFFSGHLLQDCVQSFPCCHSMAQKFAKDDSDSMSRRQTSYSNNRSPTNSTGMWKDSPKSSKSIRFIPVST
Description: Binding Assay to Rat Hepatic V1 Receptors
Rat liver plasma membranes expressing the vasopressin V1 receptor subtypes are isolated by sucrose density gradient according to the method described by Lesko et al, (1973). These membranes are quickly suspended in 50.0 mM Tris.HCl buffer, pH 7.4, containing 0.2% bovine serum albumin (BSA) and 0.1 mM phenylmethylsulfonylfluoride (PMSF) and kept frozen at -70° C. until used in subsequent binding experiments. For binding experiments, the following is added to the wells of a ninety-six well format microtiter plate: 100 μl of 100.0 mM Tris.HCl buffer containing 10.0 mM MgCl2, 0.2% heat inactivated BSA and a mixture of protease inhibitors: leupeptin, 1.0 mg %; aprotinin, 1.0 mg %; 1,10-phenanthroline,2.0 mg %; trypsin inhibitor, 10.0 mg % and 0.1 mM PMSF, 20.0 μl of [phenylalanyl-3,4,5,-^3 H] vaso-pressin (S.A. 45.1 Ci/mmole) at 0.8 nM, and the reaction initiated by the addition of 80 μl of tissue membranes containing 20 μg of tissue protein. The plates are kept undisturbed on the bench top at room temperature for 120 min. to reach equilibrium. Non-specific samples are assayed in the presence of 0.1 μm of the unlabeled antagonist phenylalanylvasopressin, added in 20.0 μl volume. For test compounds, these are solubilized in 50% dimethylsulfoxide (DMSO) and added in 20.0 μl volume to a final incubation volume of 200 μl. Upon completion of binding, the content of each well is filtered off, using a Brandel® cell Harvester (Gaithersburg, Md.). The radioactivity trapped on the filter disk by the ligand-receptor complex is assessed by liquid scintillation counting in a Packard LS Counter, with an efficiency of 65% for tritium. The data are analyzed for IC50 values by the LUNDON-2 program for competition (LUNDON SOFTWARE, Ohio).

[7] = LV-2 cells transfected with human V2 receptor cDNA, Table 5, read-out: Vasopressin Binding Human V2 Receptor

For Cc1c(F)cccc1C(=O)Nc1ccc(C(=O)N2Cc3cccn3Cc3ccccc32)cn1 [Example 4], the IC50 [1] was 1 nM, the IC50 ([2]; * V1 receptor subtype in human platelet) was 44 nM and the inhibition at 10 µM [3] was 100%. It also gave an IC50 [3] of 670 nM.

With O=C(Nc1ccc(C(=O)N2Cc3cccn3Cc3ccccc32)c(Cl)c1)c1ccccc1-n1cccc1 [Example 377, N-[3-Chloro-4-(5H,11H-pyrrolo{2,1-c][1,4]benzodiazepine-10-carbonyl)-phenyl]-2-pyrrol-1-yl-benzamide] the IC50 [4, 7] was 4.5 nM and the “Urine Volume” value [5] was 13.2 ml/4 hrs.

For CN(C)Cc1ccc2n1Cc1ccccc1N(C(=O)c1ccc(NC(=O)C3=C(c4ccccc4)CCC3)cc1Cl)C2 [Example 379, [3-Chloro-4-(3-dimethylaminomethyl-5H,11H-pyrrolo[2,1-c][1,4]benzodiazepine-10-carbonyl)-phenyl]-2-phenylcyclopent-1-enecarboxylic acid amide], the IC50 [4, 7] was 12.3 nM and the “Urine Volume” value [5] was 18.9 ml/4 hrs.

In the case of O=C(Nc1ccc(C(=O)N2Cc3cccn3Cc3ccccc32)c(Cl)c1)c1cccc2cccnc12 [Example 378, Ouinoline-8-carboxylic acid [4-(5H,11H-pyrrolo[2,1-c][1,4]benzodiazepine-10-carbonyl)-3-phenyl]-amide], the IC50 [4, 7] is reported as 69.1 nM and the “Urine Volume” value [5] is reported as 11.7 ml/4 hrs.

In the case of COc1cc(C(=O)Nc2ccc(C(=O)N3Cc4ccc(CN(C)C)n4Cc4ccccc43)cn2)cc(OC)c1OC [Example 133, N-[5-[[3-[(Dimethylamino)methyl]-[5H-pyrrolo[2,1-c][1,4]benzodiazepin-10(11H)]yl]carbonyl]-2-pyridinyl]-3,4,5-trimethoxybenzamide], the inhibition at 10 µM ([1]; at 10 μM) is reported as 21%, the inhibition at 10 µM ([2]; 1.5 h, * human platelet V1) is reported as 11% and the inhibition at 10 µM [3] is reported as 59%.

Work on CN(C)CCCNc1ncccc1C(=O)Nc1ccc(C(=O)N2Cc3cccn3Cc3ccccc32)cc1 [Example 335, N-[4-(5H-pyrrolo[2,1-c][1,4]benzodiazepin-10(11H)-ylcarbonyl)phenyl]-2-[(3-dimethylaminopropyl)amino]pyridine-3-carboxamide] yielded an inhibition at 1 µM ([1]; at 1 μM) of 60% and an inhibition at 1 µM ([2]; 1.5 h, * human platelet V1, at 1 μM) of 100%.

COc1cc(C(=O)Nc2ccc(C(=O)N3Cc4cccn4Cc4ccccc43)cn2)cc(OC)c1OC [Example 5] gave an inhibition at 10 µM ([2]; 1.5 h, * human platelet V1) of 51%, an inhibition at 10 µM ([4]; ** human V2, LV-2 cell membranes, at 10 μM) of 47% and an inhibition at 10 µM [3] of 93%.

CN(C)Cc1ccc2n1Cc1ccccc1N(C(=O)c1ccc(NC(=O)c3ccccc3-c3ccccc3)cc1O)C2 [Example 372] was tested, and the IC50 [4, 7] was 15.9 nM and the “Urine Volume” value [5] was 30.3 ml/4 hrs.

O=C(Nc1ccc(C(=O)N2Cc3cccn3Cc3ccccc32)cn1)c1ccc(F)cc1Cl [Example 9] was tested, and the IC50 [6] was 6 nM, the IC50 [1] was 1.1 nM and the IC50 ([4]; ** LV-2 cells transfected with human V2 receptor cDNA, read-out: V2 IC50 (**human V2 receptor)) was 0.9 nM. It also gave an inhibition at 2.5 µM ([3]; dose 2.5 μM) of 96% and an IC50 [3] of 170 nM.
